Reference: the NIST ThermoML archive (doi:10.1016/j.jct.2012.10.023)
± gives the expanded uncertainty stated by the source.

What was measured:
[1] = 101.33 kPa, Liquid; for speed of sound: Sing-around technique in a fixed-path interferometer; for mass density: Vibrating tube method
[2] = xn = mol fraction of the nth substance listed; details: 101 kPa, Liquid; for speed of sound: Sing-around technique in a fixed-path interferometer; for mass density: Vibrating tube method

Cc1ccccc1C [1,2-dimethylbenzene]
speed of sound ([1]; 298.15 K): 1348.2 ± 0.92 m/s | mass density ([1]; 298.15 K): 875.363 ± 0.12 kg/m3 | speed of sound ([1]; 308.15 K): 1308.2 ± 0.91 m/s | mass density ([1]; 308.15 K): 866.507 ± 0.13 kg/m3

Cc1ccccc1C [1,2-dimethylbenzene] + CCCCCCCCCO
speed of sound ([2]; 298.15 K, x1 = 1): 1348.2 ± 0.92 m/s | mass density ([2]; 298.15 K, x1 = 1): 875.363 ± 0.12 kg/m3 | speed of sound ([2]; 308.15 K, x1 = 1): 1308.2 ± 0.91 m/s | mass density ([2]; 308.15 K, x1 = 1): 866.507 ± 0.12 kg/m3

Cc1cc(C)cc(C)c1 [1,3,5-trimethylbenzene]
speed of sound ([1]; 298.15 K): 1336 ± 1 m/s | mass density ([1]; 298.15 K): 860.862 ± 0.16 kg/m3 | speed of sound ([1]; 308.15 K): 1296.3 ± 0.98 m/s | mass density ([1]; 308.15 K): 852.659 ± 0.16 kg/m3

Cc1cc(C)cc(C)c1 [1,3,5-trimethylbenzene] + CCCCCCCCCO
speed of sound ([2]; 298.15 K, x1 = 1): 1336 ± 1 m/s | mass density ([2]; 298.15 K, x1 = 1): 860.862 ± 0.16 kg/m3 | speed of sound ([2]; 308.15 K, x1 = 1): 1296.3 ± 0.98 m/s | mass density ([2]; 308.15 K, x1 = 1): 852.659 ± 0.16 kg/m3

Cc1cccc(C)c1 [1,3-dimethylbenzene]
speed of sound ([1]; 298.15 K): 1320.1 ± 0.91 m/s | mass density ([1]; 298.15 K): 859.867 ± 0.13 kg/m3 | speed of sound ([1]; 308.15 K): 1279.1 ± 0.89 m/s | mass density ([1]; 308.15 K): 851.236 ± 0.13 kg/m3

Cc1cccc(C)c1 [1,3-dimethylbenzene] + CCCCCCCCCO
speed of sound ([2]; 298.15 K, x1 = 1): 1320.1 ± 0.91 m/s | mass density ([2]; 298.15 K, x1 = 1): 859.867 ± 0.13 kg/m3 | speed of sound ([2]; 308.15 K, x1 = 1): 1279.1 ± 0.89 m/s | mass density ([2]; 308.15 K, x1 = 1): 851.236 ± 0.13 kg/m3

Cc1ccc(C)cc1 [1,4-dimethylbenzene]
speed of sound ([1]; 298.15 K): 1309.5 ± 1.3 m/s | mass density ([1]; 298.15 K): 856.609 ± 0.3 kg/m3 | speed of sound ([1]; 308.15 K): 1268.6 ± 1.3 m/s | mass density ([1]; 308.15 K): 847.881 ± 0.3 kg/m3

Cc1ccc(C)cc1 [1,4-dimethylbenzene] + CCCCCCCCCO
speed of sound ([2]; 298.15 K, x1 = 1): 1309.5 ± 1.3 m/s | mass density ([2]; 298.15 K, x1 = 1): 856.609 ± 0.3 kg/m3 | speed of sound ([2]; 308.15 K, x1 = 1): 1268.6 ± 1.3 m/s | mass density ([2]; 308.15 K, x1 = 1): 847.881 ± 0.3 kg/m3

CCc1ccccc1 [ethylbenzene]
speed of sound ([1]; 298.15 K): 1318.6 ± 0.91 m/s | mass density ([1]; 298.15 K): 862.433 ± 0.13 kg/m3 | speed of sound ([1]; 308.15 K): 1277.5 ± 0.89 m/s | mass density ([1]; 308.15 K): 853.607 ± 0.13 kg/m3

CCc1ccccc1 [ethylbenzene] + CCCCCCCCCO
speed of sound ([2]; 298.15 K, x1 = 1): 1318.6 ± 0.91 m/s | mass density ([2]; 298.15 K, x1 = 1): 862.433 ± 0.13 kg/m3 | speed of sound ([2]; 308.15 K, x1 = 1): 1277.5 ± 0.89 m/s | mass density ([2]; 308.15 K, x1 = 1): 853.607 ± 0.13 kg/m3

CCCCCCCCCO [nonan-1-ol]
speed of sound ([1]; 298.15 K): 1363.1 ± 1 m/s | mass density ([1]; 298.15 K): 824.271 ± 0.17 kg/m3 | speed of sound ([1]; 308.15 K): 1330.4 ± 1 m/s | mass density ([1]; 308.15 K): 817.362 ± 0.18 kg/m3

CCCCCCCCCO [nonan-1-ol] + CCc1ccccc1
speed of sound ([2]; 298.15 K, x2 = 0): 1363.1 ± 1 m/s | speed of sound ([2]; 298.15 K, x2 = 0.0611): 1359.7 ± 1 m/s | speed of sound ([2]; 298.15 K, x2 = 0.1285): 1355.8 ± 1 m/s | speed of sound ([2]; 298.15 K, x2 = 0.1791): 1352.3 ± 0.99 m/s | speed of sound ([2]; 298.15 K, x2 = 0.2466): 1347.6 ± 0.98 m/s | speed of sound ([2]; 298.15 K, x2 = 0.3151): 1342.6 ± 0.98 m/s | speed of sound ([2]; 298.15 K, x2 = 0.3717): 1338.4 ± 0.97 m/s | speed of sound ([2]; 298.15 K, x2 = 0.4254): 1334.5 ± 0.96 m/s | speed of sound ([2]; 298.15 K, x2 = 0.5007): 1329.2 ± 0.95 m/s | speed of sound ([2]; 298.15 K, x2 = 0.5756): 1324.6 ± 0.94 m/s | speed of sound ([2]; 298.15 K, x2 = 0.6411): 1321 ± 0.94 m/s | speed of sound ([2]; 298.15 K, x2 = 0.7122): 1318 ± 0.93 m/s | speed of sound ([2]; 298.15 K, x2 = 0.7798): 1316 ± 0.92 m/s | speed of sound ([2]; 298.15 K, x2 = 0.8557): 1315.2 ± 0.92 m/s | speed of sound ([2]; 298.15 K, x2 = 0.9341): 1316.3 ± 0.91 m/s | mass density ([2]; 298.15 K, x2 = 0): 824.271 ± 0.17 kg/m3 | mass density ([2]; 298.15 K, x2 = 0.0611): 825.837 ± 0.17 kg/m3 | mass density ([2]; 298.15 K, x2 = 0.1285): 827.606 ± 0.17 kg/m3 | mass density ([2]; 298.15 K, x2 = 0.1791): 828.979 ± 0.16 kg/m3 | mass density ([2]; 298.15 K, x2 = 0.2466): 830.861 ± 0.16 kg/m3 | mass density ([2]; 298.15 K, x2 = 0.3151): 832.863 ± 0.16 kg/m3 | mass density ([2]; 298.15 K, x2 = 0.3717): 834.594 ± 0.16 kg/m3 | mass density ([2]; 298.15 K, x2 = 0.4254): 836.312 ± 0.15 kg/m3 | mass density ([2]; 298.15 K, x2 = 0.5007): 838.858 ± 0.15 kg/m3 | mass density ([2]; 298.15 K, x2 = 0.5756): 841.598 ± 0.15 kg/m3 | mass density ([2]; 298.15 K, x2 = 0.6411): 844.187 ± 0.14 kg/m3 | mass density ([2]; 298.15 K, x2 = 0.7122): 847.192 ± 0.14 kg/m3 | mass density ([2]; 298.15 K, x2 = 0.7798): 850.293 ± 0.14 kg/m3 | mass density ([2]; 298.15 K, x2 = 0.8557): 854.062 ± 0.13 kg/m3 | mass density ([2]; 298.15 K, x2 = 0.9341): 858.405 ± 0.13 kg/m3 | speed of sound ([2]; 308.15 K, x2 = 0): 1330.4 ± 1 m/s | speed of sound ([2]; 308.15 K, x2 = 0.0611): 1326.2 ± 0.99 m/s | speed of sound ([2]; 308.15 K, x2 = 0.1285): 1321.2 ± 0.98 m/s | speed of sound ([2]; 308.15 K, x2 = 0.1791): 1317.2 ± 0.98 m/s | speed of sound ([2]; 308.15 K, x2 = 0.2466): 1312 ± 0.97 m/s | speed of sound ([2]; 308.15 K, x2 = 0.3151): 1306.5 ± 0.96 m/s | speed of sound ([2]; 308.15 K, x2 = 0.3717): 1301.9 ± 0.95 m/s | speed of sound ([2]; 308.15 K, x2 = 0.4254): 1297.6 ± 0.95 m/s | speed of sound ([2]; 308.15 K, x2 = 0.5007): 1291.8 ± 0.94 m/s | speed of sound ([2]; 308.15 K, x2 = 0.5756): 1286.4 ± 0.93 m/s | speed of sound ([2]; 308.15 K, x2 = 0.6411): 1282.3 ± 0.92 m/s | speed of sound ([2]; 308.15 K, x2 = 0.7122): 1278.8 ± 0.91 m/s | speed of sound ([2]; 308.15 K, x2 = 0.7798): 1276.2 ± 0.91 m/s | speed of sound ([2]; 308.15 K, x2 = 0.8557): 1275 ± 0.9 m/s | speed of sound ([2]; 308.15 K, x2 = 0.9341): 1274.9 ± 0.89 m/s | mass density ([2]; 308.15 K, x2 = 0): 817.362 ± 0.17 kg/m3 | mass density ([2]; 308.15 K, x2 = 0.0611): 818.832 ± 0.17 kg/m3 | mass density ([2]; 308.15 K, x2 = 0.1285): 820.495 ± 0.17 kg/m3 | mass density ([2]; 308.15 K, x2 = 0.1791): 821.784 ± 0.17 kg/m3 | mass density ([2]; 308.15 K, x2 = 0.2466): 823.552 ± 0.16 kg/m3 | mass density ([2]; 308.15 K, x2 = 0.3151): 825.431 ± 0.16 kg/m3 | mass density ([2]; 308.15 K, x2 = 0.3717): 827.054 ± 0.16 kg/m3 | mass density ([2]; 308.15 K, x2 = 0.4254): 828.667 ± 0.16 kg/m3 | mass density ([2]; 308.15 K, x2 = 0.5007): 831.059 ± 0.15 kg/m3 | mass density ([2]; 308.15 K, x2 = 0.5756): 833.621 ± 0.15 kg/m3 | mass density ([2]; 308.15 K, x2 = 0.6411): 836.032 ± 0.15 kg/m3 | mass density ([2]; 308.15 K, x2 = 0.7122): 838.876 ± 0.14 kg/m3 | mass density ([2]; 308.15 K, x2 = 0.7798): 841.821 ± 0.14 kg/m3 | mass density ([2]; 308.15 K, x2 = 0.8557): 845.455 ± 0.14 kg/m3 | mass density ([2]; 308.15 K, x2 = 0.9341): 849.669 ± 0.13 kg/m3
